# Test results published in patent publication US20090011013A1, “Tacrolimus Combination Products” (LIFECYCLE PHARMA A/S, priority 2005, published 2009).
# Like-named read-outs stand apart in the source and are kept apart here.
# Columns and labels:
# [1] = cited from earlier work
# [2] = oral, cited from earlier work
# [3] = cited from earlier work; remark: listed apart in the source
# [4] = three-way crossover pilot bioavailability study of Prograf and Neoral combinations vs. Prograf; type: in vivo, human
# [5] = rats, cited from earlier work
# [6] = test system: Canine Lung Allotransplantation; details: dogs, cited from earlier work
compound,measurement,setting,value
C=CC[C@@H]1/C=C(\C)C[C@H](C)C[C@H](OC)[C@H]2O[C@@](O)(C(=O)C(=O)N3CCCC[C@H]3C(=O)O[C@H](/C(C)=C/[C@@H]3CC[C@@H](O)[C@H](OC)C3)[C@H](C)[C@@H](O)CC1=O)[C@H](C)C[C@@H]2OC [Tacrolimus],bioavailability,[1]; after oral administration,≤ 20%
same,mean time-to-peak concentration (tmax),"[1]; oral, healthy subjects or kidney or liver transplanted patients",1 to 2 h
same,time to reach peak,[2]; most patients,≤ 1 h
same,time to reach peak,[2]; some patients,≥ 4 h
same,solubility in chloroform,[3]; chloroform,very soluble
same,solubility in ethanol,[3]; ethanol,freely soluble
same,solubility in methanol,[3]; methanol,very soluble
same,solubility in water,[3]; water,practically insoluble
same,increase in tacrolimus bioavailability,[4]; tacrolimus and cyclosporine in a ratio of 1:20,above 100%
same,increase of bioavailability of tacrolimus,[4]; tacrolimus and cyclosporine in the ratio of 1:2,30%
same,hepatic extraction ratio,[5]; calculated,60%
same,intestinal extraction,[5]; calculated,34%
same,bioavailability,[5]; intestinal administration,~25%
same,bioavailability,[5]; intraportal administration (infusion over 1 hour),about 40%
same,"blood concentration of tacrolimus, combination vs alone at same dose",[6]; group E vs group C,not significant higher
same,immunosuppressive effect,[6]; i.m. 0.03 mg/kg/day (suboptimal dose),rejection
same,immunosuppressive effect,[6]; i.m. 0.1 mg/kg/day (optimal dose),adequate immunosuppression
